Patent US9730940B2, “Purine inhibitors of human phosphatidylinositol 3-kinase delta” (priority 2012, dated 2017)

Target: PI3K-alpha (Homo sapiens (Human), UniProt P42336)
Assay: HTRF PI3K biochemical assay, alpha isoform
Conditions: ratio PI3K-alpha IC50 value/PI3K-delta IC50 value

PI3K-alpha, sequence (P42336 whole entry, looked up, canonical isoform): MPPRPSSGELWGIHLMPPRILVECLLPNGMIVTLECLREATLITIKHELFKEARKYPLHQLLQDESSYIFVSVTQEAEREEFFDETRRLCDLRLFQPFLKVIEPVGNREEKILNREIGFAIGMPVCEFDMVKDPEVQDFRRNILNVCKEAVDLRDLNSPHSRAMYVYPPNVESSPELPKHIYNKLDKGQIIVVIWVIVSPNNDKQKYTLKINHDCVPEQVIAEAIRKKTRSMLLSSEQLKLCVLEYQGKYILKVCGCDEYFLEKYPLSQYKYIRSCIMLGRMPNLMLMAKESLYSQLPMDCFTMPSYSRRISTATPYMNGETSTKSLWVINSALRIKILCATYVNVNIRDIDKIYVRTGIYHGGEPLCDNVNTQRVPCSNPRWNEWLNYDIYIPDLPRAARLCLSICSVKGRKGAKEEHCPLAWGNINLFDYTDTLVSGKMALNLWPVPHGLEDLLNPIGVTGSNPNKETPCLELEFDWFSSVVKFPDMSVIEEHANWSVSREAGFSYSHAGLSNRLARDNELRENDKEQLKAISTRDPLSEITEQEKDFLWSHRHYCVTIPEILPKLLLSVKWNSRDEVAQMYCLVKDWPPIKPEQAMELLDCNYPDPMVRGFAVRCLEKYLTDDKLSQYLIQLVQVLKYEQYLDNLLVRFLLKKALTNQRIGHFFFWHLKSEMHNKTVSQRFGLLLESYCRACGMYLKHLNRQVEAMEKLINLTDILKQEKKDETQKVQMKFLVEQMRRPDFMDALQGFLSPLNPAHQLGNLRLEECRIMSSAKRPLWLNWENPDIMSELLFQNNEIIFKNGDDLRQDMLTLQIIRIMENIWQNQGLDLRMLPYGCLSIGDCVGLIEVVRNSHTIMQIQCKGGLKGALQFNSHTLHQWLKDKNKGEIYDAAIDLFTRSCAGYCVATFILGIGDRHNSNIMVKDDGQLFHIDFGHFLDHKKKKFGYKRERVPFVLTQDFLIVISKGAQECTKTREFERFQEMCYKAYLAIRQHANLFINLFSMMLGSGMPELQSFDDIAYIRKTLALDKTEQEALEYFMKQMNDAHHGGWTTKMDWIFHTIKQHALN
PI3K-alpha, sequence (P27986 whole entry partner, looked up, canonical isoform): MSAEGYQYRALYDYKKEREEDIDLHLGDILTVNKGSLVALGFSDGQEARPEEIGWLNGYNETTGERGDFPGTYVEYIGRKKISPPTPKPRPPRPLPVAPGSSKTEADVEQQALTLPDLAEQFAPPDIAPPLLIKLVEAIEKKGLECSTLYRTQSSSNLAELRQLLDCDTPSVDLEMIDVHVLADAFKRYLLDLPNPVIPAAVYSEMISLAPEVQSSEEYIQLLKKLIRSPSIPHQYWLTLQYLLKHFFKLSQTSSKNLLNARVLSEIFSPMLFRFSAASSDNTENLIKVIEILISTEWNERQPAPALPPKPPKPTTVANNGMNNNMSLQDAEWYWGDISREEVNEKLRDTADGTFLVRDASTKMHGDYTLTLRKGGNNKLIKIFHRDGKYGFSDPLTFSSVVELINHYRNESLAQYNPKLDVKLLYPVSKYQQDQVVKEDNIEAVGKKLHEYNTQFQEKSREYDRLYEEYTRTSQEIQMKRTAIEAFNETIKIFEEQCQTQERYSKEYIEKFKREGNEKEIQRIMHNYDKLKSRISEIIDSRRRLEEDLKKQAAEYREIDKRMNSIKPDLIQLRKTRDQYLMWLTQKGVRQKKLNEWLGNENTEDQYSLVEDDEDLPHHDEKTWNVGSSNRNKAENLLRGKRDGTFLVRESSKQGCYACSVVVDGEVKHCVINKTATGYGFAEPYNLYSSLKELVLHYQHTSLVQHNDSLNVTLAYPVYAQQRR

Question: `CCC(=O)N1CC[C@H](Oc2ncnc3c2nc(-c2cnn(CC)c2C)n3CC)C1` [Compound 2-93, (S)-1-(3-((9-ethyl-8-(1-ethyl-5-methyl-1H-pyrazol-4-yl)-9H-purin-6-yl)oxy)pyrrolidin-1-yl)propan-1-one] was tested. Which “Relative Selectivity versus PI3Kalpha” value did it give?
Answer: >10

Question: How did the “Relative Selectivity versus PI3Kalpha” value turn out when `CCC(=O)N1CC[C@H](Oc2ncnc3c2nc(-c2cnc(OC)c(C)c2)n3C)C1` [Compound 2-94, (S)-1-(3-((8-(6-methoxy-5-methylpyridin-3-yl)-9-methyl-9H-purin-6-yl)oxy)pyrrolidin-1-yl)propan-1-one] was run?
Answer: >10

Question: Which “Relative Selectivity versus PI3Kalpha” value does the source give for `CCC(=O)N1CC[C@H](Oc2ncnc3c2nc(-c2cnc(C(C)(C)C)s2)n3CC)C1` [Compound 2-95, (S)-1-(3-((8-(2-(tert-butyl)thiazol-5-yl)-9-ethyl-9H-purin-6-yl)oxy)pyrrolidin-1-yl)propan-1-one] here?
Answer: >10

Question: For `CCC(=O)N1CC[C@H](Oc2ncnc3c2nc(-c2cnc(C(C)(C)C)s2)n3C)C1` [Compound 2-96, (S)-1-(3-((8-(2-(tert-butyl)thiazol-5-yl)-9-methyl-9H-purin-6-yl)oxy)pyrrolidin-1-yl)propan-1-one], which “Relative Selectivity versus PI3Kalpha” value is on record?
Answer: >10

Question: For `CCC(=O)N1CC[C@H](Oc2ncnc3c2nc(-c2cnn(CC)c2C)n3C2CC2)C1` [Compound 2-97, (S)-1-(3-((9-cyclopropyl-8-(1-ethyl-5-methyl-1H-pyrazol-4-yl)-9H-purin-6-yl)oxy)pyrrolidin-1-yl)propan-1-one], which “Relative Selectivity versus PI3Kalpha” value is on record?
Answer: >10

Question: How did the “Relative Selectivity versus PI3Kalpha” value turn out when `CCn1c(-c2cnc(C)nc2)nc2c(O[C@H]3CCN(C(=O)C4CC4)[C@@H]3C)ncnc21` [Compound 2-98, 6-{[(2R,3S)-1-(cyclopropylcarbonyl)-2-methylpyrrolidin-3-yl]oxy}-9-ethyl-8-(2-methylpyrimidin-5-yl)-9H-purine] was run?
Answer: >10

Question: For `CCn1c(-c2cnc(C)nc2)nc2c(OC3CN(C(=O)C4CC4)CC3(F)F)ncnc21` (centres unmarked) [Compound 2-99, 6-{[1-(cyclopropylcarbonyl)-4,4-difluoropyrrolidin-3-yl]oxy}-9-ethyl-8-(2-methylpyrimidin-5-yl)-9H-purine], which “Relative Selectivity versus PI3Kalpha” value is on record?
Answer: >10

Question: With `CCn1c(-c2cnc(C)nc2)nc2c(O[C@H]3CCN(C(=O)[C@@H]4CCC[C@H]4N)C3)ncnc21` [Compound 2-101, (1R,2R)-2-{[(3S)-3-{[9-ethyl-8-(2-methylpyrimidin-5-yl)-9H-purin-6-yl]oxy}pyrrolidin-1-yl]carbonyl}cyclopentanamine] as the compound, how does the “Relative Selectivity versus PI3Kalpha” value read?
Answer: >10

Question: `CCn1c(-c2cnc(C)nc2)nc2c(O[C@H]3CCN(C(=O)C4CNC4)C3)ncnc21` [Compound 2-102, 6-{[(3S)-1-(azetidin-3-ylcarbonyl)pyrrolidin-3-yl]oxy}-9-ethyl-8-(2-methylpyrimidin-5-yl)-9H-purine] was tested. Which “Relative Selectivity versus PI3Kalpha” value did it give?
Answer: >10

Question: For `CCn1c(-c2cnc(C)nc2)nc2c(O[C@H]3CCN(C(=O)[C@H]4CCC[C@H]4N)C3)ncnc21` [Compound 2-103, (1R,2S)-2-{[(3S)-3-{[9-ethyl-8-(2-methylpyrimidin-5-yl)-9H-purin-6-yl]oxy}pyrrolidin-1-yl]carbonyl}cyclopentanamine], which “Relative Selectivity versus PI3Kalpha” value is on record?
Answer: >10

Question: How did the “Relative Selectivity versus PI3Kalpha” value turn out when `CCn1c(-c2cnc(C)nc2)nc2c(O[C@H]3CCN(C(=O)[C@@H]4CN5CC[C@H]4C5)C3)ncnc21` [Compound 2-104, 6-({(3S)-1-[(3S,4R)-1-azabicyclo[2.2.1]hept-3-ylcarbonyl]pyrrolidin-3-yl}oxy)-9-ethyl-8-(2-methylpyrimidin-5-yl)-9H-purine] was run?
Answer: >10

Question: With `CCn1ncc(-c2nc3c(O[C@H]4CCN(C(=O)C5CCC5)C4)ncnc3n2C)c1C` [Compound 2-105, 6-{[(3S)-1-(cyclobutylcarbonyl)pyrrolidin-3-yl]oxy}-8-(1-ethyl-5-methyl-1H-pyrazol-4-yl)-9-methyl-9H-purine] as the compound, how does the “Relative Selectivity versus PI3Kalpha” value read?
Answer: >10

Question: How did the “Relative Selectivity versus PI3Kalpha” value turn out when `CCn1ncc(-c2nc3c(O[C@H]4CCN(C(=O)C5CC(F)(F)C5)C4)ncnc3n2C)c1C` [Compound 2-106, 6-({(3S)-1-[(3,3-difluorocyclobutyl)carbonyl]pyrrolidin-3-yl}oxy)-8-(1-ethyl-5-methyl-1H-pyrazol-4-yl)-9-methyl-9H-purine] was run?
Answer: >10

Question: How did the “Relative Selectivity versus PI3Kalpha” value turn out when `CCn1c(-c2cnc(C)nc2)nc2c(O[C@H]3CCN(C(=O)C4CC4)C3)ncnc21` [Compound 2-107, 6-{[(3S)-1-(cyclopropylcarbonyl)pyrrolidin-3-yl]oxy}-9-ethyl-8-(2-methylpyrimidin-5-yl)-9H-purine] was run?
Answer: >10

Question: Which “Relative Selectivity versus PI3Kalpha” value does the source give for `CCn1c(-c2cnc(C)nc2)nc2c(O[C@H]3CCN(C(=O)C4CC4C)C3)ncnc21` (stereo partly drawn) [Compound 2-108, 9-ethyl-6-({(3S)-1-[(2-methylcyclopropyl)carbonyl]pyrrolidin-3-yl}oxy)-8-(2-methylpyrimidin-5-yl)-9H-purine] here?
Answer: >10

Question: With `CCn1c(-c2cnc(C)nc2)nc2c(O[C@H]3CCN(C(=O)c4ccn(C)n4)C3)ncnc21` [Compound 2-109, 9-ethyl-6-({(3S)-1-[(1-methyl-1H-pyrazol-3-yl)carbonyl]pyrrolidin-3-yl}oxy)-8-(2-methylpyrimidin-5-yl)-9H-purine] as the compound, how does the “Relative Selectivity versus PI3Kalpha” value read?
Answer: >10

Question: How did the “Relative Selectivity versus PI3Kalpha” value turn out when `CCn1c(-c2cnc(C)nc2)nc2c(O[C@H]3CCN(C(=O)[C@H]4C[C@H]5CC[C@@H]4C5)C3)ncnc21` [Compound 2-110, 6-({(3S)-1-[(1R,2S,4S)-bicyclo[2.2.1]hept-2-ylcarbonyl]pyrrolidin-3-yl}oxy)-9-ethyl-8-(2-methylpyrimidin-5-yl)-9H-purine] was run?
Answer: >10

Question: With `CCn1c(-c2cnc(C)nc2)nc2c(O[C@H]3CCN(C(=O)[C@@H](N)C(C)C)C3)ncnc21` [Compound 2-111, (2S)-1-[(3S)-3-{[9-ethyl-8-(2-methylpyrimidin-5-yl)-9H-purin-6-yl]oxy}pyrrolidin-1-yl]-3-methyl-1-oxobutan-2-amine] as the compound, how does the “Relative Selectivity versus PI3Kalpha” value read?
Answer: >10

Question: How did the “Relative Selectivity versus PI3Kalpha” value turn out when `CCn1c(-c2cnc(C)nc2)nc2c(O[C@H]3CCN(C(=O)C4(N)CCC4)C3)ncnc21` [Compound 2-112, 1-{[(3S)-3-{[9-ethyl-8-(2-methylpyrimidin-5-yl)-9H-purin-6-yl]oxy}pyrrolidin-1-yl]carbonyl}cyclobutanamine] was run?
Answer: >10

Question: Which “Relative Selectivity versus PI3Kalpha” value does the source give for `CCn1c(-c2cnc(C)nc2)nc2c(O[C@H]3CCN(C(=O)C4CCOC4)C3)ncnc21` (stereo partly drawn) [Compound 2-113, 9-ethyl-8-(2-methylpyrimidin-5-yl)-6-{[(3S)-1-(tetrahydrofuran-3-ylcarbonyl)pyrrolidin-3-yl]oxy}-9H-purine] here?
Answer: >10

Question: For `CCn1c(-c2cnc(C)nc2)nc2c(O[C@H]3CCN(C(=O)CC(C)(C)N)C3)ncnc21` [Compound 2-114, 4-[(3S)-3-{[9-ethyl-8-(2-methylpyrimidin-5-yl)-9H-purin-6-yl]oxy}pyrrolidin-1-yl]-2-methyl-4-oxobutan-2-amine], which “Relative Selectivity versus PI3Kalpha” value is on record?
Answer: >10

Question: `CCn1c(-c2cnc(C)nc2)nc2c(O[C@H]3CCN(C(=O)C=C(C)C)C3)ncnc21` [Compound 2-116, 9-ethyl-6-{[(3S)-1-(3-methylbut-2-enoyl)pyrrolidin-3-yl]oxy}-8-(2-methylpyrimidin-5-yl)-9H-purine] was tested. Which “Relative Selectivity versus PI3Kalpha” value did it give?
Answer: >10

Question: With `CCn1c(-c2cnc(C)nc2)nc2c(O[C@H]3CCN(C(=O)C4[C@@H](C)[C@@H]4C)C3)ncnc21` (stereo partly drawn) [Compound 2-121, 6-({(3S)-1-[(2S,3S)-(2,3-dimethylcyclopropyl)carbonyl]pyrrolidin-3-yl}oxy)-9-ethyl-8-(2-methylpyrimidin-5-yl)-9H-purine] as the compound, how does the “Relative Selectivity versus PI3Kalpha” value read?
Answer: >10

Question: For `CCn1c(-c2cnc(C)nc2)nc2c(O[C@H]3CCN(C(=O)C4C(C)C4C)C3)ncnc21` (some centres unmarked) [Compound 2-128], which “Relative Selectivity versus PI3Kalpha” value is on record?
Answer: >10

Question: With `CCn1c(-c2cnc(C)nc2)nc2c(O[C@H]3CCN(C(=O)C4CC(C)C4)C3)ncnc21` (stereo partly drawn) [Compound 2-129, 9-ethyl-6-({(3S)-1-[(3-methylcyclobutyl)carbonyl]pyrrolidin-3-yl}oxy)-8-(2-methylpyrimidin-5-yl)-9H-purine] as the compound, how does the “Relative Selectivity versus PI3Kalpha” value read?
Answer: >10

Question: For `CCn1c(-c2cnc(C)nc2)nc2c(O[C@H]3CCN(C(=O)c4cocn4)C3)ncnc21` [Compound 2-136, 9-ethyl-8-(2-methylpyrimidin-5-yl)-6-{[(3S)-1-(1,3-oxazol-4-ylcarbonyl)pyrrolidin-3-yl]oxy}-9H-purine], which “Relative Selectivity versus PI3Kalpha” value is on record?
Answer: >10

Question: How did the “Relative Selectivity versus PI3Kalpha” value turn out when `CCn1c(-c2cnc(C)nc2)nc2c(OC3(C)CCN(C(=O)C4CC4)C3)ncnc21` (centres unmarked) [Compound 2-141, 6-{[1-(cyclopropylcarbonyl)-3-methylpyrrolidin-3-yl]oxy}-9-ethyl-8-(2-methylpyrimidin-5-yl)-9H-purine] was run?
Answer: >10

Question: Which “Relative Selectivity versus PI3Kalpha” value does the source give for `CCn1c(-c2ccc(OC(F)(F)F)cc2)nc2c(O[C@H]3CCN(C(=O)C4CC4)C3)ncnc21` [Compound 2-142, 6-{[(3S)-1-(cyclopropylcarbonyl)pyrrolidin-3-yl]oxy}-9-ethyl-8-[4-(trifluoromethoxy)phenyl]-9H-purine] here?
Answer: >10

Question: For `CCn1c(-c2ccc(OC)nc2)nc2c(O[C@H]3CCN(C(=O)C4CC4)C3)ncnc21` [Compound 2-143, 6-{[(3S)-1-(cyclopropylcarbonyl)pyrrolidin-3-yl]oxy}-9-ethyl-8-(6-methoxypyridin-3-yl)-9H-purine], which “Relative Selectivity versus PI3Kalpha” value is on record?
Answer: >10

Question: How did the “Relative Selectivity versus PI3Kalpha” value turn out when `CCn1c(-c2ccnc(OC)c2)nc2c(O[C@H]3CCN(C(=O)C4CC4)C3)ncnc21` [Compound 2-144, 6-{[(3S)-1-(cyclopropylcarbonyl)pyrrolidin-3-yl]oxy}-9-ethyl-8-(2-methoxypyridin-4-yl)-9H-purine] was run?
Answer: >10

Question: Which “Relative Selectivity versus PI3Kalpha” value does the source give for `CCn1c(-c2ccc(C(F)(F)F)nc2)nc2c(O[C@H]3CCN(C(=O)C4CC4)C3)ncnc21` [Compound 2-145, 6-{[(3S)-1-(cyclopropylcarbonyl)pyrrolidin-3-yl]oxy}-9-ethyl-8-[6-(trifluoromethyl)pyridin-3-yl]-9H-purine] here?
Answer: >10

Question: Which “Relative Selectivity versus PI3Kalpha” value does the source give for `CCn1c(-c2ccc(C(F)(F)F)cc2)nc2c(O[C@H]3CCN(C(=O)C4CC4)C3)ncnc21` [Compound 2-146, 6-{[(3S)-1-(cyclopropylcarbonyl)pyrrolidin-3-yl]oxy}-9-ethyl-8-[4-(trifluoromethyl)phenyl]-9H-purine] here?
Answer: >10
